Experimental data from patent US20240132513A1, “BENZAZEPINE DERIVATIVES, COMPOSITIONS, AND METHODS FOR TREATING COGNITIVE IMPAIRMENT” (AGENEBIO, INC., priority 2022, published 2024).
“Also recorded” adds a separate entry of the source.

What was measured:
GABAA α5 receptor = target: T1, GABAA α5 receptor (Rattus norvegicus, UniProt P19969); experiment: GABAA α5 receptor occupancy with Ro 15-4513 tracer; format: in vivo, Long Evans rats; settings: for % RO (L-655,708 Method): young Long Evans rats
T1 construct: from tissue; host or cells: rat brain in vivo; hippocampus versus cerebellum
T1 sequence (P19969 32-464 limits assumed): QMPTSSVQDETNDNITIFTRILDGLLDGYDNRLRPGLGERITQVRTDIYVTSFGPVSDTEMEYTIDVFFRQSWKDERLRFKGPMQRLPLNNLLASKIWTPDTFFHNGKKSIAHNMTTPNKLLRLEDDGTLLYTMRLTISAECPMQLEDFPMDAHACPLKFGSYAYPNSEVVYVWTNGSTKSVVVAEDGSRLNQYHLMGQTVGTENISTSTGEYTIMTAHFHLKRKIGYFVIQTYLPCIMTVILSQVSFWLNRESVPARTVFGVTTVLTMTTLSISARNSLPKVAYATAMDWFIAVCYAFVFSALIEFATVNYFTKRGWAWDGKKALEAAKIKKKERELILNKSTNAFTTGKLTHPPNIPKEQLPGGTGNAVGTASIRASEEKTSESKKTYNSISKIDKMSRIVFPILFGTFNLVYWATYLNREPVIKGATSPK
Text: Food and water were available ad libitum.

α5-containing GABAA R = α5-containing GABAA R (Homo sapiens, UniProt P18507+P31644); settings: EC20; cited from earlier work
Sequence of α5-containing GABAA R (P31644 32-462): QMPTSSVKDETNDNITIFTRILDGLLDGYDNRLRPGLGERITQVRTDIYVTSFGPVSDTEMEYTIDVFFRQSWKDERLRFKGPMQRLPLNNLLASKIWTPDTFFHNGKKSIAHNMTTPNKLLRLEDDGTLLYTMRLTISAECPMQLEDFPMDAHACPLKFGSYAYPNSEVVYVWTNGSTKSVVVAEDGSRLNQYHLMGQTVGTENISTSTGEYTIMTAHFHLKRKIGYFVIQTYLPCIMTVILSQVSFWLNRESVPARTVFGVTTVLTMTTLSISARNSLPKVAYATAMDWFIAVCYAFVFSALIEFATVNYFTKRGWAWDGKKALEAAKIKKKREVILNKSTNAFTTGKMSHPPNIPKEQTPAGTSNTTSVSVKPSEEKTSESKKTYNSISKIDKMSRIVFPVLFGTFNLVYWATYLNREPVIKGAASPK
Sequence of α5-containing GABAA R (P28472 26-473 partner): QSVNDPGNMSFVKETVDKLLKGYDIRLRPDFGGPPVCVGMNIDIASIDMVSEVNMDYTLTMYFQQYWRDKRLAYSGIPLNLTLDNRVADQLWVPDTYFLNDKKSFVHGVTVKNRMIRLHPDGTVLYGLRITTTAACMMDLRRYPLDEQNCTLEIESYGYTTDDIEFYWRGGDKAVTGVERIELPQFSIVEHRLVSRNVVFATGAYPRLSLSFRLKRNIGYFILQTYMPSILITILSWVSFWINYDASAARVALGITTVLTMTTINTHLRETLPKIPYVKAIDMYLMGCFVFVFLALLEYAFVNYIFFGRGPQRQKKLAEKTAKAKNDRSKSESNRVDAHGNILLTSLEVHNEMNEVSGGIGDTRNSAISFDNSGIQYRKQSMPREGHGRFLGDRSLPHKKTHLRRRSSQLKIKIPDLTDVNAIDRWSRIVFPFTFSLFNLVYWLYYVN
Sequence of α5-containing GABAA R (P18507 40-475): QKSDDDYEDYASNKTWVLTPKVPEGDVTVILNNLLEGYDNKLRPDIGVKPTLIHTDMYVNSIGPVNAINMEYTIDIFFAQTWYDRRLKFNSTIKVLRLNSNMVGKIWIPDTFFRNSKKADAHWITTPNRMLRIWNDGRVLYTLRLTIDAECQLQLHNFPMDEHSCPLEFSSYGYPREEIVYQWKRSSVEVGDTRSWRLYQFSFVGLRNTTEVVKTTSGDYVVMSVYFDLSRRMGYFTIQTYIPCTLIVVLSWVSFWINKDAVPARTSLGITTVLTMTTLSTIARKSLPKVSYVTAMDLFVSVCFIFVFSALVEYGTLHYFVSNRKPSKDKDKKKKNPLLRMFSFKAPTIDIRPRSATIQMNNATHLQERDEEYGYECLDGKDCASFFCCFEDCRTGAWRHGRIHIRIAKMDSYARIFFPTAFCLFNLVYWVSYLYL

aged-impaired (AI) rats = experiment: Radial Arm Maze (RAM) behavioral task, spatial memory retention; format: in vivo, rat; settings: 3 mg/kg ip, two-hour delay
Protocol: […] RAM behavioral tasks were performed on eight AI rats. All five treatment conditions (vehicle and four dosage levels) were tested on all eight rats.
The RAM apparatus used consisted of eight equidistantly-spaced arms. An elevated maze arm (7 cm width×75 cm length) projected from each facet of an octagonal center platform (30 cm diameter, 51.5 cm height). Clear side walls on the arms were 10 cm high and were angled at […] to form a trough. A food well (4 cm diameter, 2 cm deep) was located at the distal end of each arm. Froot Loops™ (Kellogg Company) were used as rewards. Blocks constructed of Plexiglas™ (30 cm height×12 cm width) could be positioned to prevent entry to any arm. Numerous extra maze cues surrounding the apparatus were also provided.
The AI rats were initially subjected to a pre-training test (Chappell et al. Neuropharmacology 37: 481-487, 1998). The pre-training test consisted of a habituation phase (4 days), a training phase on the standard win-shift task (18 days) and another training phase (14 days) in which a brief delay was imposed between presentation of a subset of arms designated by the experimenter (e.g., 5 arms available and 3 arms blocked) and completion of the eight-arm win-shift task (i.e., with all eight arms available).
In the habituation phase, rats were familiarized to the maze for an 8-minute session on four consecutive days. In each of these sessions, food rewards were scattered on the RAM, initially on the center platform and arms and then progressively confined to the arms. After this habituation phase, a standard training protocol was used, in which a food pellet was located at the end of each arm. Rats received one trial each day for 18 days. Each daily trial terminated when all eight food pellets had been obtained or when either 16 choices were made, or 15 minutes had elapsed. After completion of this training phase, a second training phase was carried out in which the memory demand was increased by imposing a brief delay during the trial. At the beginning of each trial, three arms of the eight-arm maze were blocked. Rats were allowed to obtain food on the five arms to which access was permitted during this initial “information phase” of the trial. Rats were then removed from the maze for 60 seconds, during which time the barriers on the maze were removed, thus allowing access to all eight arms. Rats were then placed back onto the center platform and allowed to obtain the remaining food rewards during this “retention test” phase of the trial. The identity and configuration of the blocked arms varied across trials.
The number of “errors” the AI rats made during the retention test phase was tracked. […]

COC(=O)c1c(-c2ccccc2)cnnc1-c1ccccc1 [methyl 3,5-diphenylpyridazine-4-carboxylate]
% RO (L-655,708 Method) (GABAA α5 receptor; 0.01 mg/kg, i.v.): 19.2%
% RO (L-655,708 Method) (GABAA α5 receptor; 0.1 mg/kg, i.v.): 16.4%
% RO (L-655,708 Method) (GABAA α5 receptor; 1 mg/kg, i.v.): 38.5%
Ro 15-4513 binding in hippocampus (GABAA α5 receptor; 0.01-10 mg/kg, i.v.): dose-dependently reduced Ro 15-4513 binding in hippocampus; also recorded: blocked the binding of Ro154513 in the hippocampus
Ro 15-4513 levels/binding in cerebellum (GABAA α5 receptor; 0.01-10 mg/kg, i.v.): without affecting cerebellum levels of Ro 15-4513; also recorded: did not affect binding of Ro15413 in the cerebellum
% RO (L-655,708 Method) (GABAA α5 receptor; 10 mg/kg, i.v.): 110.0%
GABAA α5 receptors occupied (GABAA α5 receptor; at exposures behaviorally active in aged-impaired rats, hippocampus): about 32%
ED50 of receptor occupancy, ratio method (GABAA α5 receptor; i.v.): 1.8 mg/kg
receptor occupancy at 10 mg/kg (GABAA α5 receptor; rat, iv, 10 mg/kg): > 90%
α5 in vitro efficacy (α5-containing GABAA R): +27
average no. of errors ± SEM, retention test (aged-impaired (AI) rats): 1.31±0.40
memory performance relative to vehicle control (aged-impaired (AI) rats): significantly improved memory performance
